The text below walks through data of patent US20060116399A1, “Diarylmethylidene piperidine derivatives, preparations thereof and uses thereof” (AstraZeneca AB, priority 2003, published 2006).

Where two headings read alike, the source gives them in different places.

One experiment addresses T1, cloned human δ receptor (Homo sapiens, UniProt P41143).
T1 construct: expressed in transfected cells
Put plainly: δ receptor binding assay, displacement of 125I-Deltorphin II. (In general: Loss of bound radioactivity is the signal in a displacement assay; it reports binding, not function.)

The target in another experiment is T2, human δ receptor (Homo sapiens, UniProt P41143).
T2 construct: expressed in transfected cells
Put plainly: GTP[γ]35S binding functional assay, HEK-293S membranes. The experiment is classed as biochemical. How it is done:
Human 293S cells expressing cloned human κ, δ and μ receptors and neomycin resistance are grown in suspension at 37° C. and 5% CO2 in shaker flasks containing calcium-free DMEM10% FBS, 5% BCS, 0.1% Pluronic F-68, and 600 μg/ml geneticin.
Cells are pelleted and resuspended in lysis buffer (50 mM Tris, pH 7.0, 2.5 mM EDTA, with PMSF added just prior to use to 0.1 mM from a 0.1 M stock in ethanol), incubated on ice for 15 min, then homogenized with a polytron for 30 sec. The suspension is spun at 1000 g (max) for 10 min at 4° C. The supernatant is saved on ice and the pellets resuspended and spun as before. The supernatants from both spins are combined and spun at 46,000 g (max) for 30 min. The pellets are resuspended in cold Tris buffer (50 mM Tris/Cl, pH 7.0) and spun again. The final pellets are resuspended in membrane buffer (50 mM Tris, 0.32 M sucrose, pH 7.0). Aliquots (1 ml) in polypropylene tubes are frozen in dry ice/ethanol and stored at −70° C. until use. The protein concentrations are determined by a modified Lowry assay with sodium dodecyl sulfate.
The agonist activity of the compounds is measured by determining the degree to which the compounds receptor complex activates the binding of GTP to G-proteins to which the receptors are coupled. In the GTP binding assay, GTP[γ]^35S is combined with test compounds and membranes from HEK-293S cells expressing the cloned human opioid receptors or from homogenised rat or mouse brain. Agonists stimulate GTP[γ]^35S binding in these membranes. The EC50 and Emax values of compounds are determined from dose-response curves. Right shifts of the dose response curve by the delta antagonist naltrindole are performed to verify that agonist activity is mediated through delta receptors. For human δ receptor functional assays, EC50 (low) is measured when the human δ receptors used in the assay were expressed at lower levels in comparison with those used in determining EC50 (high). The Emax values were determined in relation to the standard δ agonist SNC80, i.e., higher than 100% is a compound that have better efficacy than SNC80.
Rat brain membranes are thawed at 37° C., passed 3 times through a 25-gauge blunt-end needle and diluted in Mhe GTPγS binding (50 mM Hepes, 20 mM NaOH, 100 mM NaCl, 1 mM EDTA, 5 mM MgCl2, pH 7.4, Add fresh: 1 mM DTT, 0.1% BSA). 120 μM GDP final is added membranes dilutions. The EC50 and Emax of compounds are evaluated from 10-point dose-response curves done in 300 μl with the appropriate amount of membrane protein (20 μg/well) and 100000-130000 dpm of GTPγ^5S per well (0.11-0.14 nM). The basal and maximal stimulated binding are determined in absence and presence of 3 μM SNC-80. The assay performed on HEK 293s cells stably expressing cloned Delta receptors is done in a slightly different buffer (50 mM Hepes, 20 mM NaOH, 200 mM NaCl, 1 mM EDTA, 5 mM MgCl2, pH 7.4, Add fresh: 0.5% BSA, no DTT) and with a 3 μM final conc. of GDP.

A further experiment concerns the target T3, cloned human μ receptor (Homo sapiens, UniProt P35372).
T3 construct: expressed in transfected cells; host or cells: human HEK-293S cells, neomycin resistance
The experiment is described as follows: μ receptor binding assay, displacement of 125I-FK33824.

A further experiment has as its target cloned human κ receptor (Homo sapiens, UniProt P41145). Put plainly: κ receptor binding assay, displacement of 125I-DPDYN. As to conditions: Table 1.
[1] abbreviates: Table 2, lower receptor expression, relative to SNC80, range over several compounds, read-out: Human δ % Emax (low).

A word on the IC50: it is the point on the concentration scale where inhibition reaches its midpoint. What is called EC50 is the concentration that produces a half-maximal response. The low end stands for greater potency, the high end for weaker potency. Usually Emax stands for the size of the effect at its maximum, as opposed to the concentration needed.

T3 sequence (P35372 whole entry): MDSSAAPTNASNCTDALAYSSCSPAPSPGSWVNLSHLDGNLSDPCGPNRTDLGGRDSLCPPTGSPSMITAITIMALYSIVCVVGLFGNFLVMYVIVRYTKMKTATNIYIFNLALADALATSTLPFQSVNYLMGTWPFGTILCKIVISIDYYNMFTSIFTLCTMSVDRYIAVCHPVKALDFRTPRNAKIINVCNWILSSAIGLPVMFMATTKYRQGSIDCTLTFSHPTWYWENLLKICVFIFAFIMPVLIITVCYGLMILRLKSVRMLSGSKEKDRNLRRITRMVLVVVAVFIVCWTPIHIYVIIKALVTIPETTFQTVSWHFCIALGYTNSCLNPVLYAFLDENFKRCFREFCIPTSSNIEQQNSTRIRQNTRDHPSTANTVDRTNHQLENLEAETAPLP
T1 sequence (P41143 whole entry): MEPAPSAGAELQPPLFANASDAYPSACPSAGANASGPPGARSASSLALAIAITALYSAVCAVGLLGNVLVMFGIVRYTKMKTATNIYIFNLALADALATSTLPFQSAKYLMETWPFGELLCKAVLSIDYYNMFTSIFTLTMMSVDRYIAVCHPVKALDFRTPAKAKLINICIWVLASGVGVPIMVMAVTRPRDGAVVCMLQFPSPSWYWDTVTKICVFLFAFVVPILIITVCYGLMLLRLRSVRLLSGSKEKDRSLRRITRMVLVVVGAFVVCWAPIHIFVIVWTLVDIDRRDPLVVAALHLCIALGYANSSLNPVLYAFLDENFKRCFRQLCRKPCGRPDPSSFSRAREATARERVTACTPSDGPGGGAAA
T2 sequence (P41143 whole entry): as above
Chain of cloned human κ receptor (P41145 whole entry): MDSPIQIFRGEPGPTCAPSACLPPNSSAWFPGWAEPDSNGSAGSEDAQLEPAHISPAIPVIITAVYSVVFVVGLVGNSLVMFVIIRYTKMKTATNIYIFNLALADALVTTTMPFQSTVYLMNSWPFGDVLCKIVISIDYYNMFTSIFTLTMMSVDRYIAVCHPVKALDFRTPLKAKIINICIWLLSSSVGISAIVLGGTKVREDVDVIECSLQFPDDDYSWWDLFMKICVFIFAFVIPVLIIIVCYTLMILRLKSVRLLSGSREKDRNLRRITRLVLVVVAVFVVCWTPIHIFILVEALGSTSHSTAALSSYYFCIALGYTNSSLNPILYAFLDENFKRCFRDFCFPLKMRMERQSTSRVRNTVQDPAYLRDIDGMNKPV

Turning to `CCN(CC)C(=O)c1ccc(C(=C2CCN(Cc3cncs3)CC2)c2cccc(NC(=O)OC)c2)cc1` [Compound 5, methyl 3-{{4-[(diethylamino)carbonyl]phenyl}[1-(1,3-thiazol-5-ylmethyl)piperidin-4-ylidene]methyl}phenylcarbamate], the IC50 lay within 0.3 to 0.35 nM at cloned human δ receptor and 62.8 to 498 nM on cloned human μ receptor. Further, the EC50 at human δ receptor lay in the range of 1.8 to 5.97 nM. Further, on human δ receptor (setting [1]), the Emax is 93.7 to 128%.
The like results for `CCN(CC)C(=O)c1ccc(C(=C2CCN(Cc3cccs3)CC2)c2cccc(NC(=O)OC)c2)cc1` [Compound 1, [3-[[4-[(diethylamino)carbonyl]phenyl][1-(2-thienylmethyl)-4-piperidinylidene]methyl]phenyl]-carbamic acid, methyl ester] were, in that order, 0.3 to 0.35 nM, 62.8 to 498 nM, 1.8 to 5.97 nM and 93.7 to 128%.
The like results for `CCN(CC)C(=O)c1ccc(C(=C2CCN(Cc3ccco3)CC2)c2cccc(NC(=O)OC)c2)cc1` [Compound 2, [3-[[4-[(diethylamino)carbonyl]phenyl][1-(2-furanylmethyl)-4-piperidinylidene]methyl]phenyl]-carbamic acid, methyl ester] were, in that order, 0.3 to 0.35 nM, 62.8 to 498 nM, 1.8 to 5.97 nM and 93.7 to 128%.
For `CCN(CC)C(=O)c1ccc(C(=C2CCN(Cc3ccccc3)CC2)c2cccc(NC(=O)OC)c2)cc1` [Compound 3, [3-[[4-[(diethylamino)carbonyl]phenyl][1-(phenylmethyl)-4-piperidinylidene]methyl]phenyl]-carbamic acid, methyl ester], the IC50 at cloned human δ receptor turned out to be 0.48 nM; on cloned human μ receptor it was 28.7 nM; at cloned human κ receptor it was 188 nM. The compound also yielded an EC50 on human δ receptor of 0.62 nM. Besides, on human δ receptor (Table 1, higher receptor expression, relative to standard δ agonist SNC80, read-out: Human δ % EMax (high)), the Emax stood at 91.7%.
